In brackets after ≈: the same amount, converted by molar mass.
How the values were obtained:
[1] = test system: Mycobacterium tuberculosis; test: Antitubercular activity against Mycobacterium tuberculosis by alamar blue assay; type: functional
[2] = test system: Mycobacterium tuberculosis; test: Antitubercular activity against Mycobacterium tuberculosis H37Rv; type: functional
[3] = test system: Mycolicibacterium smegmatis; test: Antimycobacterial activity against Mycobacterium smegmatis; type: functional
[4] = test system: Mycobacterium tuberculosis; test: Antitubercular activity against Mycobacterium tuberculosis H37Rv assessed as inhibition of bacterial growth incubated for 5 days by Alamar Blue based assay; type: functional, organism-based; settings: 120 h

Row | Structure (SMILES) | MIC [1] | MIC [2] | MIC [3] | IC50 [4]
1 | CCCCCCCCCCCC(=O)NS(=O)(=O)OC[C@H]1O[C@@H](n2cnc3c(N)ncnc32)[C@H](O)[C@@H]1O | 100 µM (≈ 52.9 µg/mL) | 100 µM (≈ 52.9 µg/mL) | 215 µM (≈ 114 µg/mL) | 
2 | COc1ccc(-c2onc(C(F)(F)F)c2-c2ccccc2)c(O)c1 |  |  |  | 21.7 µg/mL (≈ 64.7 µM)
